Among the data in patent US7491827B2, “Aryl sulfonamides useful as inhibitors of chemokine receptor activity” (Millennium Pharmaceuticals, Inc., priority 2003, dated 2009) are Ki values, retold here.

SMILES strings stand for the structures.

For the first experiment, the target named is T1, cloned human CCR8 receptor stably expressed in L1.2 cells (Homo sapiens, UniProt P51685).
T1 construct: expressed in transfected cells
T1 sequence (P51685 whole entry): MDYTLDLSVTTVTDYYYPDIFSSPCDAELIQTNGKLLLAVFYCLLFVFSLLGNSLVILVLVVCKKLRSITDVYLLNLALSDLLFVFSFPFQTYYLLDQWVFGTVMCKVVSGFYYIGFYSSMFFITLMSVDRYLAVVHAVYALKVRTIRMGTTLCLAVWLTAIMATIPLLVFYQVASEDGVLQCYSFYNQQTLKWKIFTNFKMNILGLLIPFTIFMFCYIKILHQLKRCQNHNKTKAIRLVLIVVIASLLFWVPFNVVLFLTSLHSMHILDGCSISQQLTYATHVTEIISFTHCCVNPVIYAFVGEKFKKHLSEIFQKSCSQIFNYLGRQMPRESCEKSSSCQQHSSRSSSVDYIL
In words: whole cell binding screen: inhibition of biotinylated human I309 binding to CCR8 (FMAT 8100 HTS). The conditions noted are these: Ki of compounds to inhibit I-309 binding to CCR8, L1.2/hCCR8 cells, biotinylated human I-309, 10 point concentration response starting at 10 μM. The procedure, abridged: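 Ten-point dilutions, top 10 μM final, were tested for displacing biotin-I309 from hCCR8-transfected L1.2 cells in HEPES-buffered HBSS with BSA and sodium azide, mixing 0.5 h before FMAT 8100 detection. Signals converted to percent inhibition against untreated wells and a 100 nM excess unlabeled I309 control.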
The Ki is the equilibrium dissociation constant of an inhibitor or competing ligand from its target. The molecule `CN[C@@H](C)C(=O)N1CCC(NS(=O)(=O)c2ccc(NC(=O)c3ccccc3C)c3ccccc23)CC1` [Compound C-123, (S)-2-Methyl-N-{4-[1-(2-methylamno-propionyl)-piperidin-4-ylsulfamoyl]-naphthalen-1-yl}-benzamide] returned a Ki of less than 0.5 µM.
In turn, `CCC(=O)N1CCC(NS(=O)(=O)c2ccc(NC(=O)c3ccccc3C)c3ccccc23)CC1` [Compound C-50, 2-Methyl-N-[4-(1-propionyl-piperidin-4-ylsulfamoyl)-naphthalen-1-yl]-benzamide] showed a Ki of less than 0.5 µM.
The molecule `O=C(Nc1ccc(S(=O)(=O)Nc2ccccc2)c2ccccc12)c1ccccc1` [Compound A-7, N-(4-Phenylsulfamoyl-naphthalen-1-yl)-benzamide] returned a Ki of less than 1 µM.
`Cc1ccccc1C(=O)Nc1ccc(S(=O)(=O)NC2CCN(C(=O)[C@@H]3CCCN3)CC2)c2ccccc12` [Compound C-125, (S)-2-Methyl-N-{4-[1-(pyrrolidine-2-carbonyl)-piperidin-4-ylsulfamoyl]-naphthalen-1-yl}-benzamide] registered a Ki of less than 0.5 µM.

Staying with this experiment, now noted: L1.2/hCCR8 cells, biotinylated human I-309, 10 point concentration response starting at 10 μM; read-out: Ki of compounds to inhibit I-309 binding to CCR8.
For the molecule `Cc1ccccc1C(=O)Nc1cccc2c(S(=O)(=O)Nc3ccc(Cl)cc3)cccc12` [Compound H-21, N-[5-(4-Chloro-phenylsulfamoyl)-naphthalen-1-yl]-2-methyl-benzamide], the Ki was less than 1 µM.
Consider `CCN(CC)CC(=O)N1CC[C@@H](NS(=O)(=O)c2ccc(NC(=O)c3ccccc3C)c3ccccc23)[C@@H](C)C1` (racemic) [Compound C-144, (±)-N-{4-[1-(2-diethylamino-acetyl)-3-cis-methyl-piperidin-4-ylsulfamoyl]-naphthalen-1-yl}-2-methyl-benzamide], for which the Ki was less than 30 µM.
Same read-out and setting: the result for `O=C(Nc1ccccc1Cl)c1ccc(S(=O)(=O)NC2CCNCC2)c2ccccc12` [Compound F-17, 4-(Piperidin-4-ylsulfamoyl)-naphthalene-1-carboxylic acid (2-chloro-phenyl)-amide] reads less than 30 µM.
For the molecule `CC(C)NC(=O)N1CCC(NS(=O)(=O)c2ccc(NC(=O)c3ccccc3)c3ccccc23)CC1` [Compound C-2, 4-(4-Benzoylamino-naphthalene-1-sulfonylamino)-piperidine-1-carboxylic acid isopropyl amide], the Ki is less than 0.5 µM.
Take `COc1ccc(NS(=O)(=O)c2ccc(NC(=O)c3ccccc3OC)c3ccccc23)cc1` [Compound B-6, 2-Methoxy-N-[4-(4-methoxy-phenylsulfamoyl)-naphthalen-1-yl]-benzamide]: the Ki is less than 30 µM.
On the same count and under the same terms, in the case of `CC(C)(C)OC(=O)N1CCC(NS(=O)(=O)c2ccc(NC(=O)C3CC3)c3ccccc23)CC1` [Compound B-17, 4-[4-(Cyclopropanecarbonyl-amino)-naphthalene-1-sulfonylamino]-piperidine-1-carboxylic acid tert-butyl ester] it was less than 30 µM.
Regarding `Cc1ccccc1C(=O)Nc1ccc(S(=O)(=O)N[C@@H]2[C@H](C)CN(C(=O)N3CCCCC3)C[C@@H]2C)c2ccccc12` [Compound C-72, (±)-(cis,cis)-N-{4-[3,5-Dimethyl-1-(piperidine-1-carbonyl)-piperidin-4-ylsulfamoyl]-naphthalen-1-yl}-2-methyl-benzamide], the Ki is less than 1 µM.
On the same count and under the same terms, in the case of `CCOC(=O)N1CCC(NS(=O)(=O)c2ccc(NC(=O)c3ccccc3C)c3c2CN(CC)CC3)CC1` [Compound J-42, 4-[2-Ethyl-5-(2-methyl-benzoylamno)-1,2,3,4-tetrahydro-isoquinoline-8-sulfonylamino]-piperidine-1-carboxylic acid ethyl ester] it was less than 0.5 µM.
Still for that read-out and setting: in the case of `CCCC(=O)N1CCC(NS(=O)(=O)c2ccc(C(=O)NC3CCOCC3)c3ccccc23)CC1` [Compound F-24, 4-(1-Butyryl-piperidin-4-ylsulfamoyl)-naphthalene-1-carboxylic acid (tetrahydro-pyran-4-yl)-amide] it was less than 1 µM; in that of `O=C(Nc1ccc(S(=O)(=O)Nc2ccc(C(F)(F)F)cc2)c2ccccc12)c1ccccc1` [Compound A-30, N-[4-(4-Trifluoromethyl-phenylsulfamoyl)-naphthalen-1-yl]-benzamide], less than 30 µM; in that of `Cc1ccccc1C(=O)Nc1ccc(S(=O)(=O)NC2CCN(C(=O)OC(C)C)CC2)c2c1CCC2` [Compound H-70, 4-[7-(2-Methyl-benzoylamino)-indane-4-sulfonylamino]-piperidine-1-carboxylic acid isopropyl ester], less than 0.5 µM.
For the molecule `CCOC(=O)N1CC[C@H](NS(=O)(=O)c2ccc(N)c3ccccc23)[C@H](C)C1` (racemic) [Compound D-2, (±)-(cis)4-(4-amino-naphthalene-1-sulfonylamino)-3-methyl-piperidine-1-carboxylic acid ethyl ester], the Ki was less than 30 µM.
The same measure, in the same setting: in the case of `Cc1ccccc1C(=O)Nc1ccc(S(=O)(=O)N[C@@H]2CCN(C(=O)CN3CCCCC3)C[C@@H]2C)c2ccccc12` (racemic) [Compound C-143, (±)-2-Methyl-N-{4-[cis-3-methyl-1-(2-piperidin-1-yl-aceyl)-piperidin-4-ylsulfamoyl]-naphthalen-1-yl}-benzamide] it was less than 30 µM.
The same measure, in the same setting: the result for `CCOC(=O)N1CCC(NS(=O)(=O)c2ccc(NC(=O)c3ccccc3C)c3c2CCCC3)CC1` [Compound E-8, 4-[4-(2-Methyl-benzoylamino)-5,6,7,8-tetrahydro-naphthalene-1-sulfonylamino]-piperidine-1-carboxylic acid ethyl ester] reads less than 0.5 µM; that for `CCOC(=O)N1CCC(NS(=O)(=O)c2ccc(CNCc3ncc[nH]3)c3ccccc23)CC1` [Compound G-9, 4-(4-{[(lH-Imidazol-2-ylmethyl)-amino]-methyl}-naphthalene-1-sulfonylamino)-piperidine-1-carboxylic acid ethyl ester], less than 30 µM.
Regarding `CCOC(=O)N1CCC(NS(=O)(=O)c2cccc3c(NC(=O)c4cccc(C)c4)cccc23)CC1` [Compound H-13, 4-[5-(3-Methyl-benzoylamino)-naphthalene-1-sulfonylamino]-piperidine-1-carboxylic acid ethyl ester], the Ki was less than 30 µM.
Consider `CCOC(=O)N1CCC(NS(=O)(=O)c2cccc3c(NC(=O)C4CCCCC4)c(C)ccc23)CC1` [Compound H-22, 4-[5-(Cyclohexanecarbonyl-amino)-6-methyl-naphthalene-1-sulfonylamino]-piperidine-1-carboxylic acid ethyl ester], for which the Ki is less than 1 µM.
As to `CCCC(=O)N1C[C@H](C)C(NS(=O)(=O)c2ccc(NC(=O)c3ccccc3C)c3ccccc23)[C@@H](C)C1` (racemic) [Compound C-66, (±)-(cistrans)-N-[4-(1-Butyryl-3,5-dimethyl-piperidin-4-ylsulfamoyl)-naphthalen-1-yl]-2-methyl-benzamide], the Ki was less than 0.5 µM.
The same measure, in the same setting: in the case of `CCOC(=O)N1CC[C@H](NS(=O)(=O)c2ccc(NC(=O)c3ccccc3C)c3ccccc23)[C@@H](C)C1` (racemic) [Compound C-17, (±)-trans-3-Methyl-4-[4-(2-methyl-benzoylamino)-naphthalene-1-sulfonylaminno]-piperidine-1-carboxylic acid ethyl ester] it was less than 0.5 µM; in that of `CCCC(=O)N1CC[C@H](NS(=O)(=O)c2ccc(NC(=O)c3c(C)noc3C)c3ccccc23)[C@H](C)C1` (racemic) [Compound D-5, (±)-(cis)-3,5-Dimethyl-isoxazole-4-carboxylic acid [4-(1-butyryl-3-methyl-piperidin-4-ylsulfamoyl)-naphthalen-1-yl]-amide], less than 0.5 µM.
Turning to `Cc1ccccc1C(=O)Nc1ccc(S(=O)(=O)NC2CCCNC2)c2ccccc12` (racemic) [Compound C-112, (±)-2-Methyl-N-[4-(piperidin-3-ylsulfamoyl)-naphthalen-1-yl]-benzamide], the Ki was less than 1 µM.
The same measure, in the same setting: the result for `CCOC(=O)N1CCC(NS(=O)(=O)c2cccc3c(C(=O)Nc4ccccc4Cl)cccc23)CC1` [Compound H-34, 4-[5-(2-chloro-phenylcarbamoyl)-naphthalene-1-sulfonylamino]-piperidine-1-carboxylic acid ethyl ester] reads less than 0.5 µM; that for `CCN(CC)C(=O)N1CCC(NS(=O)(=O)c2ccc(NC(=O)c3ccccc3C)c3c2CCCC3)CC1` [Compound E-14, 4-[4-(2-Methyl-benzoylamino)-5,6,7,8-tetrahydro-naphthalene-1-sulfonylamino]-piperidine-1-carboxylic acid diethylamide], less than 1 µM.
With `CC(C)(C)OC(=O)N1CCC(NS(=O)(=O)c2ccc(NC(=O)c3ccncc3)c3ccccc23)CC1` [Compound B-22, 4-{4-[(Pyridine-4-carbonyl)-amino]-naphthalene-1-sulfonylamino}-piperidine-1-carboxylic acid tert-butyl ester], the Ki was less than 30 µM.
The same measure, in the same setting: in the case of `CCNC(=O)N1CCC(NS(=O)(=O)c2ccc(NC(=O)c3ccccc3C)c3ccccc23)C(C)(C)C1` (racemic) [Compound C-21, (±)-3,3-Dimethyl-4-[4-(2-methyl-benzoylamino)-naphthalene-1-sulfonylamino]-piperidine-1-carboxylic acid ethylamide] it was less than 0.5 µM.
On to `CCNC(=O)N1CCC(C)(NS(=O)(=O)c2ccc(NC(=O)c3ccccc3C)c3ccccc23)CC1` [Compound C-24, 4-Methyl-4-[4-(2-methyl-benzoylamino)-naphthalene-1-sulfonylamino]-piperidine-1-carboxylic acid ethylamide], for which the Ki was less than 0.5 µM.
Turning to `CCOC(=O)N1CCC(NS(=O)(=O)c2ccc(NC(=O)c3ccccc3C)c3c2CCC3)CC1` [Compound H-64, 4-[7-(2-Methyl-benzoylamino)-indane-4-sulfonylamino]-piperidine-1-carboxylic acid ethyl ester], the inhibition constant (Ki) was less than 0.5 µM.
Regarding `O=C(Nc1cccc2c(S(=O)(=O)NC3CCCCC3)cccc12)c1ccccc1` [Compound H-5, N-(5-Cyclohexylsulfamoyl-naphthalen-1-yl)-benzamide], the Ki is less than 0.5 µM.
